Read-outs that look alike come from different tables or passages of the source. One block for each molecule: values may come before it.
Key:
[1] = biological target: T1, B2-receptors in h-NPE cells (Homo sapiens, UniProt P30411); assay: [Ca2+]i mobilization (FLIPR) in h-NPE cells, agonist mode; type: cell-based; settings: for Emax: read-out: Intrinsic Activity (Emax, % max relative to BK)
T1 construct: B2-receptor proteins in h-TM, h-CM and h-NPE cells; endogenous in cells; host or cells: human trabecular meshwork (h-TM), human ciliary muscle (h-CM) and human non-pigmented ciliary epithelial (h-NPE) cells
T1 sequence (P30411 1-391): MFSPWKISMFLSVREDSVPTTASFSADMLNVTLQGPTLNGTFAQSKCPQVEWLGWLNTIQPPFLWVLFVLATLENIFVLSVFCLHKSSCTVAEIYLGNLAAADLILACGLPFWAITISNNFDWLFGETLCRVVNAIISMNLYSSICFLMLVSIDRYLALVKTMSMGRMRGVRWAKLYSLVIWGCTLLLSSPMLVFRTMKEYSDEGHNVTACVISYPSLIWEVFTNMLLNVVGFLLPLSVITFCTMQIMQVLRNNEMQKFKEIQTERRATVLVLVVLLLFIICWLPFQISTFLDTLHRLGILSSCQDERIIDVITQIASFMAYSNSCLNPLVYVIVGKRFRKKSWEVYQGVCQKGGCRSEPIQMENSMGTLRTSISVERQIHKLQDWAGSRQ
Experimental: (§1) On the day of the experiment, one vial of FLIPR Calcium Assay Kit dye is re-suspended in 50 mL of a FLIPR buffer consisting of Hank's Balanced Salt Solution (HBSS), 20 mM HEPES, and 2.5 mM probenecid, pH 7.4. Cells are loaded with the calcium-sensitive dye by addition of an equal volume (50 μL) to each well of the 96-well plate and incubated with dye for 1 h at 23° C. After this time, the test compound plate and cell plate are placed in the FLIPR instrument. At the beginning of an experimental run, a signal test is performed to check the basal fluorescence signal from the dye-loaded cells and the uniformity of the signal across the plate. The basal fluorescence is adjusted between 8000-12000 counts by modifying the exposure time, the camera F-stop, or the laser power. Instrument settings for a typical assay are the following: laser power 0.3-0.6 W, camera F-stop F/2, and exposure time 0.4 sec.
(§2) Fluorescence data are collected in real-time at 1.0 sec intervals for the first 60 secs and at 6.0 sec intervals for an additional 120 secs. […] The data are then analyzed using an automated, iterative, sigmoidal curve-fitting computer program to obtain the potency and intrinsic activities of the test agents as previously described (Sharif et al. J. Pharmacol. Exp. Ther. 286: 1094-1102, 1998; Sharif et al. Invest. Ophthalmol. Vis. Sci. 39:2562-2571, 1998; Kelly et al. J. Pharmacol. Exp. Ther. 304: 238-245, 2003). The sources of materials and reagents for such assays can be found in the references cited above.

[2] = biological target: T2, B2-receptors in h-CM cells (Homo sapiens, UniProt P30411); assay: [Ca2+]i mobilization (FLIPR) in h-CM cells, agonist mode; type: cell-based; settings: read-out: Intrinsic Activity (Emax, % max relative to BK)
T2 construct: B2-receptor proteins in h-TM, h-CM and h-NPE cells; endogenous in cells; host or cells: human trabecular meshwork (h-TM), human ciliary muscle (h-CM) and human non-pigmented ciliary epithelial (h-NPE) cells
T2 sequence (P30411 1-391): T1 sequence (P30411 1-391)
Experimental: as §1, §2

[3] = biological target: T3, B2-receptors in h-TM cells (Homo sapiens, UniProt P30411); assay: [Ca2+]i mobilization (FLIPR) in h-TM cells, agonist mode; type: cell-based; settings: for Emax: HTM, read-out: Intrinsic Activity (Emax, % max relative to BK)
T3 construct: B2-receptor proteins in h-TM, h-CM and h-NPE cells; endogenous in cells; host or cells: human trabecular meshwork (h-TM), human ciliary muscle (h-CM) and human non-pigmented ciliary epithelial (h-NPE) cells
T3 sequence (P30411 1-391): T1 sequence (P30411 1-391)
Experimental: as §1, §2

[4] = test system: Human trabecular meshwork (TM) cells; assay: PGE2 production (RIA) in human trabecular meshwork cells; type: cell-based; settings: 1 h at 37° C., BK 100 nM or 1 μM, fluprostenol 1 μM, non-peptide agonists 1 μM or 10 μM, FIG. 6
Experimental: The ability of BK agonists to stimulate prostaglandin E2 (PGE2) production was examined as follows. Human trabecular meshwork (TM) cells were seeded in culture plates and allowed to reach confluence. […] Fluprostenol was used as a positive control. After this time the assay was terminated by placing the assay plates on ice and by the addition of 100 μL of a cell-lysis reagent supplied with the PGE2 radioimmunoassay (RIA) kit (Amersham Pharmacia Biotech, Arlington Heights, Ill.). All reagents and standards supplied in the RIA kit were prepared and the RIA performed according to the manufacturer's instructions. Assay buffer, diluted prostaglandin E2 (PGE2) standard and supernatant from the cell-based experiment (diluted 1:100 v/v) were then pipetted into appropriate tubes as specified in the kit instructions. […]
After this incubation, all tubes were placed in an ice-bath and 1 ml cold precipitating reagent supplied in the kit was added to the tubes, the content mixed and incubated for 25 min at 4° C. […] The supernatants of all tubes were decanted as specified in the kit instructions and the RIA samples analyzed on a gamma-counter. The levels of PGE2 generated by the test agent were then quantified in comparison with the PGE2-standard curve. Dose-response data for the test agent were constructed and the potency and intrinsic activity determined as described above for other assays.

[5] = biological target: T4, BK B2-Receptor in h-NPE cells (Homo sapiens, UniProt P30411); assay: Antagonism of FR-190997-induced [Ca2+]i mobilization in h-NPE cells; type: cell-based; settings: FR-190997 as the agonist, read-out: Antagonist Potency (Ki)
T4 construct: B2-receptor proteins in h-TM, h-CM and h-NPE cells; endogenous in cells; host or cells: human trabecular meshwork (h-TM), human ciliary muscle (h-CM) and human non-pigmented ciliary epithelial (h-NPE) cells
T4 sequence (P30411 1-391): T1 sequence (P30411 1-391)
Experimental: as §1, §2

[6] = test system: conscious ocular hypertensive cynomolgus monkey eyes; assay: IOP response in lasered (hypertensive) eyes of conscious cynomolgus monkeys, topical ocular; type: in vivo; settings: for % Change in IOP: Table 10, 300 μg topical ocular
Experimental: Intraocular pressure (IOP) is determined with an Alcon Pneumatonometer (Alcon Laboratories, Inc., Fort Worth, Tex.) after light corneal anesthesia with 0.1% proparacaine. Right eyes are hypertensive as a result of laser trabeculoplasty. After a baseline IOP measurement, test compound is instilled in the right eyes only of 8-10 cynomolgus monkeys. Vehicle is instilled in the right eyes of 5-6 additional animals. Subsequent IOP measurements are taken at 1, 3, and 6 hours. IOP measurements are also taken on left eyes (normotensive and untreated) at each of these time points. The percent change in IOP from baseline is determined for each animal for every IOP measurement (Sharif et al. J. Ocular Pharmacol. Ther. 17: 305-317, 2001; May et al., J Pharmacol Exp Ther. 306: 301-309, 2003; Sharif et al. Invest. Ophthalmol. Vis. Res. 47: 4001-4010, 2006). Group mean and standard error of the mean (SEM) are calculated for each time point. […] In cases where the compound of invention has poor ocular bioavailability, the compound may need to be administered intracamerally or intravitreally in order to observe the IOP-lowering efficacy.
The IOP-lowering effect was slow to develop but significant IOP reduction was observed even 3 hours post-dosing with maximum ocular hypotension observed 16-48 hours post-dosing (Tables 6-8; FIGS. 3b-5).

[7] = biological target: human bradykinin B2-receptor (human) (UniProt P30411); assay: cell-based or functional assay

Emax ([1]; h-NPE cells, mean ± SEM): 70%
Emax ([2]; h-CM cells, mean ± SEM): 94%
Emax ([3]; h-TM cells, mean ± SEM): 112%
Molecule: N=C(N)NCCC[C@H](N)C(=O)N1CCC[C@H]1C(=O)N1CCC[C@H]1C(=O)NCC(=O)N[C@@H](Cc1ccccc1)C(=O)N[C@@H](CO)C(=O)N1CCC[C@H]1C(=O)N[C@@H](Cc1ccccc1)C(=O)O [Des-Arg^9-BK]

Ki [5]: 146 nM
Molecule: CNC(=O)c1ccc(/C=C/C(=O)NCC(=O)N(C)c2ccc(Cl)c(COc3cccc4ccc(C)nc34)c2Cl)cc1 [FR-165649, reference compound]
modulation of IOP ([6]; 300 μg topically administered): failed to modulate IOP
% Change in IOP ([6]; Dose 1/1 hr): 1.0 ± 3.1%
% Change in IOP ([6]; Dose 1/3 hr): 0.7 ± 3.5%
% Change in IOP ([6]; Dose 1/6 hr): −6.2 ± 4.7%
% Change in IOP ([6]; Dose 1/24 hr): −4.0 ± 3.2%

[Ca2+]i mobilization in h-CM cells: Intrinsic Activity (Emax, % max relative to BK) [7]: 94%
[Ca2+]i mobilization in h-CM cells: Potency (EC50; nM) [7]: 4260 nM
[Ca2+]i mobilization in h-NPE cells: Intrinsic Activity (Emax, % max relative to BK) [7]: 70%
[Ca2+]i mobilization in h-NPE cells: Potency (EC50; nM) [7]: 16000 nM
[Ca2+]i mobilization in h-TM cells: Intrinsic Activity (Emax, % max relative to BK) [7]: 112%
[Ca2+]i mobilization in h-TM cells: Potency (EC50; nM) [7]: 2570 nM
Molecule: Des-Arg^9-BK (Arg-Pro-Pro-Gly-Phe-Ser-Pro-Phe) (peptide)

More lines, now with the values behind:

Molecule: O=C(O)CCC/C=C\C[C@@H]1[C@@H](/C=C/[C@@H](O)COc2cccc(C(F)(F)F)c2)[C@H](O)C[C@@H]1O (racemic) [fluprostenol, reference compound]
production of endogenous prostaglandins (PGE2) [4]: stimulate the production of endogenous prostaglandins

Molecule: N=C(N)NCCC[C@H](NC(=O)[C@H](Cc1ccccc1)NC(=O)[C@@H]1CCCN1C(=O)[C@H](CO)NC(=O)[C@H](Cc1ccccc1)NC(=O)CNC(=O)[C@@H]1C[C@@H](O)CN1C(=O)[C@@H]1CCCN1C(=O)[C@@H](N)CCCNC(=N)N)C(=O)O [Hyp^3-BK, Arg-Pro-Hyp-Gly-Phe-Ser-Pro-Phe-Arg]
EC50 [1]: 6 ± 0.6 nM
Emax [1]: 93%
Emax [2]: 105%
EC50 [3]: 0.9 ± 0.3 nM
Emax [3]: 110%

Molecule: H-RPPGFSPFR-OH [BK]
Emax [1]: 98%
Emax [2]: 104%
Emax [3]: 110%

Source: US8173668B1 (Alcon Research, Ltd., priority 2007, dated 2012)
